Patent US4401660A, “Ester derivatives of 5-O-mycaminosyl tylonolide and method of using same” (Eli Lilly and Company, priority 1981, dated 1983)

What was measured:
Assay type in all cases: cell-based
Set-up in all cases: unit not given here
[1] = tested on: Staphylococcus epidermidis EPI1; assay: MIC, standard agar-dilution assay (Table II)
Protocol: (§1) The MIC's in Table II were determined by standard agar-dilution assays. The MIC's in Table III were obtained using a conventional broth-dilution microtiter test.

[2] = tested on: Staphylococcus epidermidis EPI2; assay: MIC, standard agar-dilution assay (Table II)
Protocol: as §1

[3] = tested on: Streptococcus Group D 9960; assay: MIC, standard agar-dilution assay (Table II)
Protocol: as §1

[4] = tested on: Staphylococcus aureus X1.1; assay: MIC, standard agar-dilution assay (Table II)
Protocol: as §1

[5] = tested on: Staphylococcus aureus S13E; assay: MIC, standard agar-dilution assay (Table II)
Protocol: as §1

[6] = tested on: Haemophilus influenzae R252; assay: MIC, standard agar-dilution assay (Table II); details: Haemophilus influenzae R252, ampicillin-resistant strain
Protocol: as §1

[7] = tested on: Streptococcus pyogenes C203; assay: MIC, standard agar-dilution assay (Table II)
Protocol: as §1

[8] = tested on: Haemophilus influenzae Holt; assay: MIC, standard agar-dilution assay (Table II); details: ampicillin-sensitive strain
Protocol: as §1

[9] = tested on: Staphylococcus aureus V41; assay: MIC, standard agar-dilution assay (Table II); details: Staphylococcus aureus V41, penicillin-resistant strain
Protocol: as §1

[10] = tested on: Streptococcus Group D X66; assay: MIC, standard agar-dilution assay (Table II)
Protocol: as §1

[11] = tested on: Streptococcus pneumoniae Park I; assay: MIC, standard agar-dilution assay (Table II)
Protocol: as §1

[12] = tested on: Staphylococcus aureus X400; assay: MIC, standard agar-dilution assay (Table II); details: Staphylococcus aureus X400, methicillin-resistant strain
Protocol: as §1

[13] = tested on: Mycoplasma gallisepticum; assay: MIC, broth-dilution microtiter test (Table III)
Protocol: as §1

[14] = tested on: Pasteurella haemolytica 22C; assay: MIC, broth-dilution microtiter test (Table III)
Protocol: as §1

[15] = tested on: Staphylococcus aureus; assay: MIC, broth-dilution microtiter test (Table III)
Protocol: as §1

[16] = tested on: Pasteurella multocida 17E; assay: MIC, broth-dilution microtiter test (Table III); details: bovine isolate
Protocol: as §1

[17] = tested on: Pasteurella multocida 40G; assay: MIC, broth-dilution microtiter test (Table III)
Protocol: as §1

[18] = tested on: Mycoplasma synoviae; assay: MIC, broth-dilution microtiter test (Table III)
Protocol: as §1

[19] = tested on: Pasteurella multocida 68C; assay: MIC, broth-dilution microtiter test (Table III)
Protocol: as §1

[20] = tested on: Mycoplasma hyorhinis; assay: MIC, broth-dilution microtiter test (Table III)
Protocol: as §1

[21] = tested on: Pasteurella multocida 60A; assay: MIC, broth-dilution microtiter test (Table III); details: avian isolate
Protocol: as §1

[22] = tested on: Pasteurella multocida 22A; assay: MIC, broth-dilution microtiter test (Table III)
Protocol: as §1

[23] = tested on: Pasteurella haemolytica 41D; assay: MIC, broth-dilution microtiter test (Table III)
Protocol: as §1

[24] = tested on: Pasteurella haemolytica 23C; assay: MIC, broth-dilution microtiter test (Table III)
Protocol: as §1

[25] = tested on: Streptococcus sp. 80; assay: MIC, broth-dilution microtiter test (Table III)
Protocol: as §1

Row | SMILES | minimal inhibitory concentration (MIC) [1] | minimal inhibitory concentration (MIC) [2] | minimal inhibitory concentration (MIC) [3] | minimal inhibitory concentration (MIC) [4] | minimal inhibitory concentration (MIC) [5] | minimal inhibitory concentration (MIC) [6] | minimal inhibitory concentration (MIC) [7] | minimal inhibitory concentration (MIC) [8] | minimal inhibitory concentration (MIC) [9] | minimal inhibitory concentration (MIC) [10] | minimal inhibitory concentration (MIC) [11] | minimal inhibitory concentration (MIC) [12] | minimal inhibitory concentration (MIC) [13] | minimal inhibitory concentration (MIC) [14] | minimal inhibitory concentration (MIC) [15] | minimal inhibitory concentration (MIC) [16] | minimal inhibitory concentration (MIC) [17] | minimal inhibitory concentration (MIC) [18] | minimal inhibitory concentration (MIC) [19] | minimal inhibitory concentration (MIC) [20] | further results
1 | CCC1OC(=O)CC(O)C(C)C(OC2OC(C)C(OC(C)=O)C(N(C)C)C2OC(C)=O)C(CC=O)CC(C)C(=O)C=CC(C)=CC1COC(=O)C(Cl)Cl (stereo not drawn) [Compound 66, 2',4'-Di-O-acetyl-23-O-dichloroacetyl-OMT] | 1 | 2 | 2 | 1 | 1 | 1 | 0.25 | 2 | 2 | 1 | 0.125 | 2 | 1.56 | 25 | 3.12 | 3.12 | 3.12 | 1.56 | 3.12 | 6.25 | minimal inhibitory concentration (MIC) [21]: 6.25; minimal inhibitory concentration (MIC) [22]: 3.12; minimal inhibitory concentration (MIC) [23]: 25; minimal inhibitory concentration (MIC) [24]: 12.5; minimal inhibitory concentration (MIC) [25]: < 0.78
2 | CCC(=O)OC1C(OC2C(CC=O)CC(C)C(=O)C=CC(C)=CC(CO)C(CC)OC(=O)CC(O)C2C)OC(C)C(O)C1N(C)C (stereo not drawn) [Compound 2, 2'-O-Propionyl-OMT] | 1 | 1 | 2 | 2 | 2 | 4 | 0.5 | 4 | 4 | 2 | 8 | 4 | 0.39 | 12.5 | 3.12 | 3.12 | 6.25 | 0.78 | 3.12 | 3.12 | minimal inhibitory concentration (MIC) [21]: 1.56; minimal inhibitory concentration (MIC) [22]: 3.12; minimal inhibitory concentration (MIC) [23]: 12.5; minimal inhibitory concentration (MIC) [24]: 12.5; minimal inhibitory concentration (MIC) [25]: < 0.78
3 | CCC1OC(=O)CC(O)C(C)C(OC2OC(C)C(O)C(N(C)C)C2OC(C)=O)C(CC=O)CC(C)C(=O)C=CC(C)=CC1COC(=O)Cc1cc(OC)ccc1OC (stereo not drawn) [Compound 62] | 0.125 | 0.25 | 0.125 | 0.25 | 0.125 | 2 | 0.06 | 1 | 0.25 | 0.125 | 0.03 | 0.25 | < 0.05 | 6.25 | 0.78 | 3.12 | 3.12 | < 0.05 | 6.25 | 0.78 | minimal inhibitory concentration (MIC) [21]: 12.5; minimal inhibitory concentration (MIC) [22]: 3.12; minimal inhibitory concentration (MIC) [23]: 3.12; minimal inhibitory concentration (MIC) [24]: 6.25; minimal inhibitory concentration (MIC) [25]: 0.195
4 | CCC1OC(=O)CC(O)C(C)C(OC2OC(C)C(O)C(N(C)C)C2OC(C)=O)C(CC=O)CC(C)C(=O)C=CC(C)=CC1COC(=O)Cc1ccc([N+](=O)[O-])cc1 (stereo not drawn) [Compound 64] | 0.125 | 0.25 | 0.125 | 0.125 | 0.125 | 1 | 0.06 | 1 | 0.125 | 0.125 | 0.015 | 0.125 | 0.097 | 3.12 | 0.78 | 1.56 | 1.56 | < 0.05 | 1.56 | 0.78 | minimal inhibitory concentration (MIC) [21]: 1.56; minimal inhibitory concentration (MIC) [22]: 1.56; minimal inhibitory concentration (MIC) [23]: 3.12; minimal inhibitory concentration (MIC) [24]: 3.12; minimal inhibitory concentration (MIC) [25]: < 0.05
5 | CCC1OC(=O)CC(O)C(C)C(OC2OC(C)C(O)C(N(C)C)C2OC(=O)Cc2ccccc2)C(CC=O)CC(C)C(=O)C=CC(C)=CC1COC(=O)Cc1ccccc1 (stereo not drawn) [Compound 53, 2',23-Di-O-Phenylacetyl-OMT] | 0.25 | 0.25 | 0.25 | 0.25 | 0.25 | 1 | 0.06 | 1 | 0.25 | 0.25 | 0.03 | 0.25 | < 0.05 | 3.12 | 0.195 | 1.56 | 1.56 | < 0.05 | 0.78 | 3.12 | minimal inhibitory concentration (MIC) [21]: 1.56; minimal inhibitory concentration (MIC) [22]: 1.56; minimal inhibitory concentration (MIC) [23]: 3.12; minimal inhibitory concentration (MIC) [24]: 3.12; minimal inhibitory concentration (MIC) [25]: < 0.05
6 | CCC1OC(=O)CC(O)C(C)C(OC2OC(C)C(O)C(N(C)C)C2O)C(CC=O)CC(C)C(=O)C=CC(C)=CC1COC(=O)C12CC3CC(CC(C3)C1)C2 (stereo not drawn) [Compound 70] | 1 | 1 | 2 | 1 | 1 | 16 | 1 | 8 | 1 | 2 | 0.5 | 1 | 1.56 | 25 | 6.25 | 12.5 | 12.5 | 0.39 | 12.5 | 3.12 | minimal inhibitory concentration (MIC) [21]: 25; minimal inhibitory concentration (MIC) [22]: 12.5; minimal inhibitory concentration (MIC) [23]: 25; minimal inhibitory concentration (MIC) [24]: 25; minimal inhibitory concentration (MIC) [25]: 1.56
